US9790504B2, “Anti-tumor therapy” (The University of Chicago, priority 2013, dated 2017)
Entries after “also recorded” stand apart in the source; their conditions may differ.

How the values were obtained:
lung cancer cell lines = assay: Clonogenic assay, sensitivity of lung cancer cell lines to drug; format: cell-based
Method: (§1) To screen the candidate interferon-stimulated genes, a panel of fifteen individual cancer cell lines were selected from those available in our lab, the ATCC, or affiliated laboratories (see Table No. 3, below). These cell lines were characterized for relative radioresistance using a clonogenic assay. Briefly, the cells were cultured in their appropriate media at 5% CO2 at 37° C. Optimal cell plating concentrations for a p60 dish were determined for each cell line. The majority of cell lines were plated in triplicate at concentrations of 100 cells/plate for control, 1000 cells/plate for 2 Gy, 2000 cells/plate for 5 Gy, and 3000 cells/plate for 8 Gy. Plates were irradiated 24 hours after plating with either 2, 5, or 8 Gy using a Nordion Gammacell ^60Co irradiator operating at a dose rate of ˜18 Gy/minute. Cells were allowed to grow for 10-21 days (depending on the cell line) until colonies were >50 cells. Plates were then fixed with formalin and stained with crystal violet. Colonies with more than 50 cells were counted. Clonogenic survival for Clonogenic data was obtained for all cell lines tested in screen.
In subsequent experiments, 18 lung cancer cell lines were tested for sensitivity to the Jak2 inhibitor SAR302503 (TG) using a clonogenic assay. […] Further, radioresistance was positively correlated with resistance to Jak2 suppression in 11 cell lines. […]

Stat1 = assay: Western blot of interferon-mediated Stat1 activation with Jak inhibitors; format: cell-based; settings: β- and γ-interferon (Type I and Type II IFN) signaling, SCC61 cells
Method: (§2) Treatment with TG and Rux inhibited β- and γ-interferon-mediated activation of Stat1 and Stat3;
(§3) Total cellular protein was extracted in radioimmunoprecipitation assay buffer with protease inhibitors added (1×PBS, 1% NP40, 0.5% sodium deoxycholate, 0.1% SDS, 1 mmol/L Na3VO4, 2 μg/mL aprotinin, 1 mmol/L phenylmethylsulfonyl fluoride). All samples were normalized by protein concentration using Bradford reagent and standard solution of bovine serum albumin (1 mg/mL). Concentration of all samples was adjusted to 1 mg/mL and equal amount of protein was loaded in each well. For total proteins, 10 μg of protein was loaded per well. Proteins were separated on 7.5%-12% SDS-PAGE (depending on molecular mass of protein) and transferred to polyvinylidene difluoride membranes (PVDF). Total proteins were detected using the rabbit or goat primary Abs. For loading control, the antibodies for actin (I-19) and glyceraldehyde-3-phosphate dehydrogenase (GAPDH; FL-335) were used. All antibodies were purchased from Santa Cruz Biotechnology. Images were quantified with ImageJ software by integration pixel values across the area of specific bands.
(§4) The effects of Jak1/2 and Jak2 inhibitors were investigated on the activation of Stat1 and Stat3 in the context of Type I and Type II IFN signaling. […]

Stat3 = assay: Western blot of interferon-mediated Stat3 activation with Jak inhibitors; format: cell-based; settings: β- and γ-interferon (Type I and Type II IFN) signaling, SCC61 cells
Method: as §2, §3, §4

different cell lines = assay: Suppression of tumor growth in different cell lines; format: cell-based; settings: data not shown
H2030 cells = assay: Clonogenic assay, ionizing radiation plus TG; format: cell-based; settings: 5 Gy+1 μM TG; most radioresistant cells
Method: as §1
In subsequent experiments, 18 lung cancer cell lines were tested for sensitivity to the Jak2 inhibitor SAR302503 (TG) using a clonogenic assay. […] Further, radioresistance was positively correlated with resistance to Jak2 suppression in 11 cell lines.

[1] = tested on: CW22Rv1 (pStat3-positive) xenografts; assay: Xenograft in nude mice treated by ionizing radiation, TG, or their combination; format: in vivo; settings: constitutively active Jak/Stat signaling
Method: (§5) The relative sensitivity of lung cancer cell lines to TG and etoposide—one of the most common drugs in adjuvant chemotherapy of lung cancer was also tested. Subgroups of cell lines were found with relatively high resistance to etoposide (SF>0.5) but relatively sensitive to TG (0.1<SF<0.2; see FIG. 8). As proof of principle, two isogenic cell lines CWRR1 (pStat3-negative, without constitutive activation of Jak/Stat-signaling) and CW22Rv1 (with constitutively active Jak/Stat signaling) were established as xenografts in nude mice and treated by ionizing radiation, TG, or their combination.

[2] = tested on: CWRR1 (pStat3-negative) xenografts; assay: as above; format: in vivo; settings: without constitutive activation of Jak/Stat signaling
Method: as §5

[3] = tested on: two lung cancer cell lines; settings: associated with suppression of the Stat3 pathway; cited from earlier work

SMILES: COc1cc([C@@H]2c3cc4c(cc3[C@@H](O[C@@H]3O[C@@H]5CO[C@@H](C)O[C@H]5[C@H](O)[C@H]3O)[C@H]3COC(=O)[C@H]23)OCO4)cc(OC)c1O [etoposide]
- SF (surviving fraction) (lung cancer cell lines; subgroups of lung cancer cell lines with high resistance to etoposide but relatively sensitive to TG): > 0.5

SMILES: Cc1cnc(Nc2ccc(OCCN3CCCC3)cc2)nc1Nc1cccc(S(=O)(=O)NC(C)(C)C)c1 [TG]
- phosphorylation (activation) of Stat1 (Stat1): suppressed; also recorded: inhibited
- phosphorylation (activation) of Stat3 (Stat3): suppressed; also recorded: inhibited
- suppression of tumor growth compared to Ruxolitinib (different cell lines): more effectively suppressed tumor growth compared to Ruxolitinib
- sensitivity to TG (lung cancer cell lines; 7 relatively radioresistant cell lines of 18 lung cancer cell lines, clonogenic assay): high sensitivity
- clonogenic colonies (H2030 cells): no clonogenic colonies formed
- sensitization to ionizing radiation [1]: successfully sensitized
- sensitization to ionizing radiation [2]: not sensitized

SMILES: Cc1cnc(Nc2ccc(N3CCN(C)CC3)cc2)nc1Nc1cccc(S(=O)(=O)NC(C)(C)C)c1 [TG101209]
- radiosensitizing effects [3]: radiosensitizing effects
